Columns and labels:
[1] = molecular target: Serotonin 4 (5-HT4) receptor (Sus scrofa) (UniProt Q6Q253); experiment: Evaluated for the 5-hydroxytryptamine 4 receptor antagonistic activity in piglet atrium model; assay type: functional, tissue-based; conditions: Cardiac atrium
[2] = molecular target: Serotonin 3 (5-HT3) receptor (Homo sapiens) (UniProt P46098+A5X5Y0+O95264+Q70Z44+Q8WXA8)
Description: Evaluated for the 5-hydroxytryptamine 3 receptor antagonistic activity in Bezold-Jarisch model expressed as inhibition of the reflex bradycardia induced by an intravenous injection

Sequence of Serotonin 4 (5-HT4) receptor (Sus scrofa) (Q6Q253 as listed by the source): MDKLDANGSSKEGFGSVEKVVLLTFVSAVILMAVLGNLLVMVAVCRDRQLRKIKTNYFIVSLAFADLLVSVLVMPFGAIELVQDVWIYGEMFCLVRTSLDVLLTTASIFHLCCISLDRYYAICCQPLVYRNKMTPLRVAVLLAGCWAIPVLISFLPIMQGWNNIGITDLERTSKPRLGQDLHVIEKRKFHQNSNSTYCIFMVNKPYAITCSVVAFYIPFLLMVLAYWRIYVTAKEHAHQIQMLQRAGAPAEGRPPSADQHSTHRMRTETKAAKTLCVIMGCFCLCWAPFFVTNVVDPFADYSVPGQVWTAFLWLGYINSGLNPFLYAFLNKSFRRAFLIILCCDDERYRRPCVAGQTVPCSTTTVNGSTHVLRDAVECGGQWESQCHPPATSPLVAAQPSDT

Row | Structure (SMILES) | -Log KB [1] | ID50 [2] [µg/kg]
1 | CN1C2CCC1CC(NC(=O)N1CC(C)(C)c3ccccc31)C2 (stereo not given) | 4.9 | –
2 | CN1C2CCC1CC(OC(=O)c1[nH]nc3ccccc13)C2 (stereo not given) | 7.2 | 5
3 | CN1[C@@H]2CC[C@H]1C[C@H](NC(=O)c1nn(C)c3ccccc13)C2 | 6.5 | –
4 | CN1[C@@H]2CC[C@H]1C[C@@H](OC(=O)c1c[nH]c3ccccc13)C2 | 6.9 | 1.4
5 | CN1C2CCCC1CC(NC(=O)c1[nH]nc3ccccc13)C2 (stereo not given) | 5 | 1
6 | CN1C2CCC1CC(NC(=O)c1n[nH]c3ccccc13)C2 (stereo not given) | 6.8 | 1.5

— ChEMBL document CHEMBL1126417, “Indazole as an indole bioisostere: 5-HT4 receptor antagonism” (Bioorg Med Chem Lett, 1992)
